{
  "source": "patent US8466172B2",
  "about": "“Stabilization of hypoxia inducible factor (HIF) alpha” (FibroGen, Inc., priority 2001, dated 2013)",
  "key": {"[1]": {"tested_on": "Wistar rats, acute myocardial infarction (AMI)", "assay": "Cardiac ischemia Experiment I, 10-week study after acute myocardial infarction", "type": "in vivo, rat", "procedure": "Alternatively, one hundred forty adult male Wistar rats (200-250 g) were anaesthetized and subjected to left coronary artery occlusion to produce AMI. Forty-eight hours after surgery, 2DE images were obtained and animals with a significant area of infarction were randomized to treatment with compound A (n=34) or vehicle (n=34).\n(§1) Animals were treated by gavage 2 times per day for the duration of the experiment with compound A at 50 mg/kg or with vehicle alone. Serum level of drug was determined periodically to establish that treated animals received sufficient and consistent amount of drug and that the measured levels were sufficient to inhibit prolyl 4-hydroxylase.\nDigital mid-papillary muscle and apical four chamber 2DE images were obtained biweekly on half of the animals in each group until week 8. Two observers blinded to treatment did measurements off-line. For the measurements, the digital images were slowed and frozen at end systole and end diastole. Two to three endocardial surfaces were traced in both the short axis and four chamber views and averaged. The left ventricular area in systole and diastole, ejection fraction, fractional area change, wall thickness, mitral peak E wave velocity, aortic peak velocity, and infarct size were measured.\nAfter 10 weeks of treatment, in vivo hemodynamic measurements were determined and hearts were excised and weighed as described below.\n(§2) To collect in vivo hemodynamic measurements, animals were anaesthetized and the right carotid artery was dissected free from surrounding tissues and canulated with an SPR-671 ultra-miniature pressure transducer (Millar Instruments, Inc., Houston Tex.). The catheter was then advanced into the left ventricle. After steady state was established, baseline heart rate (HR), developed pressure (DP), contractile index (CI), left ventricle systolic pressure (SBP) and end diastolic pressure (LVEDP), and maximal rate of pressure rise and fall (+dP/dt and −dP/dt, respectively) were recorded.\n(§3) Following hemodynamic measurement, hearts were excised and weighed. Pieces of scarred myocardium, and right ventricle and left ventricle myocardium distant from the site of infarct were dissected out and weighed. Hydroxyproline and proline were determined by the method of Palmerini et al. (1985, J Chromatogr 339:285-92) except that L-azetidine-2-carboxylic acid (Sigma-Aldrich) was substituted for 3,4-dehydroproline as the internal standard."}, "[2]": {"tested_on": "Wistar rats, acute myocardial infarction (AMI)", "assay": "Cardiac ischemia Experiment I, 4-week study after acute myocardial infarction", "type": "in vivo, rat", "details": "for fractional shortening: Treated-MI", "description": "Seventy adult male Wistar rats (200-250 g) were anaesthetized and subjected to left coronary artery occlusion to produce acute myocardial infarction (AMI). Nine animals were subjected to identical surgery without coronary artery ligation. Twenty-four to forty-eight hours after surgery, electrocardiogram (ECG) electrodes were applied to the paws and a 15 MHz linear probe (Acuson Corp., Mountain View Calif.) was applied to the chest to obtain short axis transthoracic echocardiography (2DE) images at the mid-papillary muscle level. The probe was moved cephalad or caudad and angulated until clear endocardial visualization of the left ventricular cavity was detected. Images were obtained using the Sequoia ultrasound system (Acuson). Animals with less than 20% fractional shortening and regional wall motion abnormality on the 2DE were randomized to treatment with compound A (n=14) or vehicle (n=12). The sham controls were also randomized to treatment with compound A (n=4) or vehicle (n=5).\nas §1, with “4-hydroxylase, a representative 2-oxoglutarate dioxygenase.” for “4-hydroxylase.”\nSerial 2DE images were obtained weekly. Three short axis 2DE digital clips containing 5 or more systolic and diastolic frames were captured and stored. Two observers blinded to treatment did measurements off-line. For the measurements, the digital images were slowed and frozen at end systole and end diastole. Two systolic and two diastolic frames from each of the three digital clips were measured by consensus and averaged. The anterior wall in systole (AWS) and diastole (AWD), posterior wall in systole (PWS) and diastole (PWD), and left ventricular end systolic (LVESD) and end diastolic (LVEDD) were measured according to the American Society for Echocardiology (ASE) leading-edge method. For consistency, measurements were done from the anterior to the posterior mid points of the left ventricular cavity and were randomly repeated to ensure reproducibility (reproducibility was approximately 96%).\nAt four weeks of treatment, in vivo hemodynamic measurements were determined, as described below, both before and after infusion (0.2 ml over 1 minute) of […] isoproterenol via the femoral vein. Hearts were then excised and weighed as described below.\nas §2, §3"}, "[3]": {"tested_on": "vascular endothelial growth factor (VEGF)", "assay": "VEGF expression in conditioned media, QUANTIKINE immunoassay", "type": "cell-based, human", "details": "HFF, 293A and Hep3B cells", "procedure": "When cell layers reached confluence, the media was replaced with OPTI-MEM media (Invitrogen Life Technologies, Carlsbad Calif.) and cell layers were incubated for approximately 24 hours in 20% O2, 5% CO2 at 37° C. Compound of the invention (one of compounds A to O) or DMSO (0.5 to 1%) was then added to existing medium, and incubation was continued overnight.\nConditioned media collected from cell cultures grown as in Example 1 was analyzed for vascular endothelial growth factor (VEGF) expression using a QUANTIKINE immunoassay (R&D Systems) according to the manufacturer's instructions. […] Values on the y-axis represent fold-induction relative to control and are reported on a log2 scale, such that a value of 1 represents 2-fold induction."}},
  "note": "Values joined by “and” are separate entries in the source; they are usually repeats but may differ in a detail not shown here. Equal entries are not always repeated.",
  "data": [
    {"smiles": "O=C(O)c1c[nH]c2c(ccc3cccnc32)c1=O", "note": "[Compound A, 4-oxo-1,4-dihydro-[1,10]phenanthroline-3-carboxylic acid]", "values": [
      {"measurement": "deaths immediately following insult to the heart (FIG. 8)", "setting": "[1]; 50 mg/kg gavage 2 times per day, n=34", "result": "no deaths"},
      {"measurement": "percent of treated group still alive", "setting": "[1]; 8 weeks after myocardial infarction, 50 mg/kg gavage 2 times per day", "result": "over 90%"},
      {"measurement": "+dP/dt", "setting": "[1]; 10 weeks post-MI", "result": "6701 ± 331", "unit": "mm Hg/sec"},
      {"measurement": "Developed pressure", "setting": "[1]; 10 weeks post-MI", "result": "97 ± 3", "unit": "mm Hg"},
      {"measurement": "Hydroxyproline/proline in infarct scar", "setting": "[1]; 10 weeks post-MI", "result": "0.471 ± 0.024"},
      {"measurement": "Hydroxyproline/proline in non-infarct left ventricular myocardium", "setting": "[1]; 10 weeks post-MI", "result": "0.099 ± 0.025"},
      {"measurement": "Hydroxyproline/proline in non-infarct right ventricular myocardium", "setting": "[1]; 10 weeks post-MI", "result": "0.152 ± 0.044"},
      {"measurement": "Systolic BP", "setting": "[1]; 10 weeks post-MI", "result": "106 ± 4", "unit": "mm Hg"},
      {"measurement": "−dP/dt", "setting": "[1]; 10 weeks post-MI", "result": "6395 ± 373", "unit": "mm Hg/sec"},
      {"measurement": "left ventricular ejection fraction (LVEF)", "setting": "[1]; at randomization", "result": 33, "unit": "%"},
      {"measurement": "relative reduction in mortality", "setting": "[1]; treated relative to untreated group, weeks 2 through 8", "result": 77, "unit": "%"},
      {"measurement": "left ventricular ejection fraction (LVEF) relative to untreated controls (FIG. 10A)", "setting": "[1]; weeks 2 through 8", "result": "statistically significant improvement"},
      {"measurement": "Hydroxyproline/proline in infarct scar", "setting": "[2]; 4 weeks post-MI", "result": "0.34 ± 0.08"},
      {"measurement": "Hydroxyproline/proline in non-infarct left ventricular myocardium", "setting": "[2]; 4 weeks post-MI", "result": "0.12 ± 0.06"},
      {"measurement": "Hydroxyproline/proline in non-infarct right ventricular myocardium", "setting": "[2]; 4 weeks post-MI", "result": "0.13 ± 0.02"},
      {"measurement": "+dP/dt", "setting": "[2]; 4 weeks post-MI, baseline", "result": "9477 ± 581", "unit": "mm Hg/sec"},
      {"measurement": "Developed pressure", "setting": "[2]; 4 weeks post-MI, baseline", "result": "133 ± 6", "unit": "mm Hg"},
      {"measurement": "Systolic BP", "setting": "[2]; 4 weeks post-MI, baseline", "result": "143 ± 7", "unit": "mm Hg"},
      {"measurement": "−dP/dt", "setting": "[2]; 4 weeks post-MI, baseline", "result": "9978 ± 827", "unit": "mm Hg/sec"},
      {"measurement": "+dP/dt", "setting": "[2]; 4 weeks post-MI, isoproterenol", "result": "16830 ± 1195", "unit": "mm Hg/sec"},
      {"measurement": "Developed pressure", "setting": "[2]; 4 weeks post-MI, isoproterenol", "result": "121 ± 9", "unit": "mm Hg"},
      {"measurement": "Systolic BP", "setting": "[2]; 4 weeks post-MI, isoproterenol", "result": "130 ± 9", "unit": "mm Hg"},
      {"measurement": "−dP/dt", "setting": "[2]; 4 weeks post-MI, isoproterenol", "result": "9234 ± 703", "unit": "mm Hg/sec"},
      {"measurement": "fractional shortening", "setting": "[2]; week 0 (baseline)", "result": "10% and 10 ± 0.8%"},
      {"measurement": "fractional shortening", "setting": "[2]; week 1", "result": "17 ± 1", "unit": "%"},
      {"measurement": "fractional shortening", "setting": "[2]; week 2", "result": "20% and 20 ± 2%"},
      {"measurement": "fractional shortening", "setting": "[2]; week 3", "result": "21 ± 2", "unit": "%"},
      {"measurement": "fractional shortening", "setting": "[2]; week 4", "result": "21 ± 3", "unit": "%"},
      {"measurement": "increase in fractional shortening relative to baseline", "setting": "[2]; week 2", "result": 79, "unit": "%"},
      {"measurement": "VEGF expression in conditioned media (FIG. 4A)", "setting": "[3]", "result": "increase in VEGF expression"}
    ]}
  ]
}
